Experimental findings from patent US20070205140A1, “Method of Removing Sulfides Including Hydrogen Sulfide and Mercaptan” (K - I CHEMICAL INDUSTRY CO., LTD., priority 2004, published 2007) are described below.

The nature of assay [1]: Test Example 1: removal of hydrogen sulfide from hexane, FPD gas chromatography. The conditions noted are these: for Test sample A Hydrogen sulfide concentration: 100 ppm hydrogen sulfide, 100 ppm compound; for effect of removing hydrogen sulfide (in words): summary of Table 1. The procedure: Two 200-ml four-neck flasks were provided. Hexane (100 ml) was placed in the flask equipped with a bubbling device. In the other flask, iron sulfide underwent a reaction with the dropwise addition of hydrochloric acid, resulting the generation of hydrogen sulfide. Then, hexane was subjected to bubbling with hydrogen sulfide that had been transferred via a tube. Thus, test samples at a hydrogen sulfide concentration of 100 ppm were prepared. The measurement of hydrogen sulfide concentration was carried out by FPD gas chromatography (using a flame photometric detector). Stock solution of BNPA, DBNE, and BNP (100 ppm each) were separately added to the test samples, followed by stirring for a given period of time. The hydrogen sulfide concentration of each sample was measured in a time-dependent manner.

A short description of assay [2]: Test Example 2: removal of methyl mercaptan gas by formulation in closed bag, detector tube. To be noted: for Methyl mercaptan gas concentration: 1 ml formulation, methyl mercaptan gas at 500 ppm; for effect of removing methyl mercaptan (in words): summary of Table 2. The procedure: A formulation containing BNPA was previously prepared in accordance with Formulation example 1. With the use of DBNE and BNP instead of BNPA, formulations containing DBNE and BNP, respectively, were prepared, in accordance with formulation example 1. Each formulation (1 ml) was dispensed into a glass petri dish covered with a plastic bag. Then, each plastic bag was closed after being filled with methyl mercaptan gas at 500 ppm. The methyl mercaptan gas was allowed to come into contact with the formulation for a given time. Thereafter, the methyl mercaptan gas concentration was measured using a detector tube.

The nature of assay [3]: Test Example 3: removal of hydrogen sulfide dissolved in water, methylene blue colorimetric method. The conditions noted are these: for removal of hydrogen sulfide dissolved in water (in words): summary of Table 3; for Residual hydrogen sulfide concentration: water, test compound 500 ppm, stirring for 10 minutes, ND = complete removal. The procedure:
Distilled water was bubbled with hydrogen sulfide gas. Thus, a hydrogen sulfide-dissolved solution (5 mgS/l) was prepared. The solution was placed in separate beakers. Then, formulations that were prepared in accordance with Test example 2 were separately added thereto in a manner such that the concentration of each test compound became 500 ppm, followed by stirring for 10 minutes. Thereafter, the residual hydrogen sulfide concentration was measured. The measurement was carried out using “Pack Tests” (Kyoritsu Chemical-Check Lab., Corp.) in accordance with a methylene blue colorimetric method.

The nature of assay [4]: Test Example 4: removal of hydrogen sulfide gas by formulation in closed bag, detector tube. To be noted: for Hydrogen sulfide concentration: 1 ml formulation, 1 liter hydrogen sulfide gas at 500 ppm; for removal of hydrogen sulfide gas (in words): summary of Table 4. How it is done: A formulation containing BNPA was previously prepared in accordance with Formulation example 1. With the use of BNP instead of BNPA, a formulation containing BNP was prepared in accordance with formulation example 1.
Iron sulfide and hydrochloric acid were allowed to react with each other, resulting in the generation of hydrogen sulfide. Thus, hydrogen sulfide gas at a concentration of 500 ppm was prepared. Each formulation (1 ml) was placed in a glass petri dish covered with a plastic bag. Then, each plastic bag was closed after being filled with 1 liter of hydrogen sulfide gas. At 24 and 48 hours later, the hydrogen sulfide gas concentration was measured using a detector tube.

The nature of assay [5]: Test Example 5: removal of hydrogen sulfide dissolved in water, 30 minutes stirring, methylene blue colorimetric method. The conditions noted are these: for residual hydrogen sulfide (in words): summary of Table 5. How it is done:
Distilled water was bubbled with a hydrogen sulfide gas. Thus, a solution containing dissolved hydrogen sulfide (5 mgS/l) was prepared. The solution was placed in separate beakers. Then, formulations that were prepared in accordance with Test example 4 were separately added thereto in a manner such that the concentration of each test compound became 500 ppm, followed by stirring for 30 minutes using a stirrer. Thereafter, the residual hydrogen sulfide concentration was measured. The measurement was carried out using “Pack Tests” (Kyoritsu Chemical-Check Lab., Corp.) in accordance with a methylene blue colorimetric method.

As to `CC(=O)OCC(Br)(COC(C)=O)[N+](=O)[O-]` [BNPA, 2-bromo-2-nitropropane-1,3-diyl diacetate], the “Test sample A Hydrogen sulfide concentration” value in assay [1] (contact time 0 minutes) came out at 100 ppm; in assay [1] (contact time 10 minutes), 38 ppm; in assay [1] (contact time 30 minutes), 14 ppm; in assay [1] (contact time 60 minutes), 2 ppm. Also, in assay [1], the “effect of removing hydrogen sulfide (in words)” value was “had an effect of removing hydrogen sulfide”. Besides, the “Methyl mercaptan gas concentration” value in assay [2] (contact time 0 hours) stood at 500 ppm; in assay [2] (contact time 24 hours), 283 ppm; in assay [2] (contact time 48 hours), 0 ppm. The “effect of removing methyl mercaptan (in words)” value in assay [2] is listed as “complete removal of methyl mercaptan gas was achieved after 48 hours”. Besides, in assay [3], the “removal of hydrogen sulfide dissolved in water (in words)” value (“removal of hydrogen sulfide dissolved” for short) was “complete removal of hydrogen sulfide”. Further, the Hydrogen sulfide concentration in assay [4] (contact time 0 hours) worked out at 500 ppm; in assay [4] (contact time 24 hours), 210 ppm; in assay [4] (contact time 48 hours), 0 ppm. For the same compound, the “removal of hydrogen sulfide gas (in words)” value in assay [4] was “complete removal of hydrogen sulfide was achieved after 48 hours”. The “residual hydrogen sulfide (in words)” value in assay [5] is recorded as “no hydrogen sulfide was observed”.
Consider `O=[N+]([O-])C(Br)(Br)CO` [DBNE, 2,2-dibromo-2-nitroethanol], for which the “Test sample A Hydrogen sulfide concentration” value stood at 100 ppm in assay [1] (contact time 0 minutes), 42 ppm in assay [1] (contact time 10 minutes), 25 ppm in assay [1] (contact time 30 minutes) and 11 ppm in assay [1] (contact time 60 minutes). Moreover, in assay [1], the “effect of removing hydrogen sulfide (in words)” value is given as “had an effect of removing hydrogen sulfide”. Further, the “Methyl mercaptan gas concentration” value is 500 ppm in assay [2] (contact time 0 hours), 358 ppm in assay [2] (contact time 24 hours) and 29 ppm in assay [2] (contact time 48 hours). Moreover, the “effect of removing methyl mercaptan (in words)” value in assay [2] was “confirmed to have the effect of removing methyl mercaptan”. In addition, the “removal of hydrogen sulfide dissolved” value in assay [3] is reported as “confirmed to have an effect of removing hydrogen sulfide”. In assay [3], the “Residual hydrogen sulfide concentration” value is listed as 5 mgS/l.
With `O=[N+]([O-])C(Br)(CO)CO` [BNP, 2-bromo-2-nitro-1,3-propanediol], the “Test sample A Hydrogen sulfide concentration” value in assay [1] (contact time 0 minutes) came to 100 ppm; in assay [1] (contact time 10 minutes) it was 81 ppm; in assay [1] (contact time 30 minutes) it was 77 ppm; in assay [1] (contact time 60 minutes), 68 ppm. Besides, the “effect of removing hydrogen sulfide (in words)” value in assay [1] was “the removal efficiency was poor”. Moreover, the “Methyl mercaptan gas concentration” value in assay [2] (contact time 0 hours) is reported as 500 ppm; in assay [2] (contact time 24 hours), 485 ppm; in assay [2] (contact time 48 hours), 461 ppm. In assay [2], the “effect of removing methyl mercaptan (in words)” value was “almost no effect of removing methyl mercaptan”. In assay [3], the “removal of hydrogen sulfide dissolved” value was “very low capacity for removing hydrogen sulfide”. For the same compound, the “Residual hydrogen sulfide concentration” value was found to be 18 mgS/l in assay [3] and 1 mgS/l in assay [5] (water 5 mgS/l, test compound 500 ppm, stirring for 30 minutes, ND = no hydrogen sulfide observed). Further, the Hydrogen sulfide concentration in assay [4] (contact time 0 hours) is 500 ppm; in assay [4] (contact time 24 hours) it was 480 ppm; in assay [4] (contact time 48 hours), 470 ppm. For the same compound, the “removal of hydrogen sulfide gas (in words)” value in assay [4] is listed as “complete removal was not achieved”. Besides, the “residual hydrogen sulfide (in words)” value in assay [5] is on record as “residual hydrogen sulfide was observed”.
